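Step 1: Grow cells in 96-well plates. Step 2: Expose to compound for 48 hours at 5 concentrations. Step 3: Interpolate endpoints linearly; if unreached, use highest concentration. Abbreviation: GI50, concentration required for 50% inhibition of growth.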 The source made the active and inactive calls. Rule as the data show it: active = GI50 up to about 1.1 µM and inactive = higher.
Columns and labels:
Assay in all cases: growth of human tumour cells (NCI), 48 h
786-0 = test system: 786-0
A549 = test system: A549
ACHN = test system: ACHN
BT-549 = test system: BT-549
CAKI-1 = test system: CAKI-1
CCRF-CEM = test system: CCRF-CEM
COLO 205 = test system: COLO 205
DU-145 = test system: DU-145
EKVX = test system: EKVX
HCC 2998 = test system: HCC 2998
HCT-116 = test system: HCT-116
HCT-15 = test system: HCT-15
HL-60 = test system: HL-60
HOP-62 = test system: HOP-62
HOP-92 = test system: HOP-92
HT-29 = test system: HT-29
Hs-578T = test system: Hs-578T
IGROV-1 = test system: IGROV-1
K562 = test system: K562
KM12 = test system: KM12
LOX IMVI = test system: LOX IMVI
M14 = test system: M14
MCF7 = test system: MCF7
MDA-MB-435 = test system: MDA-MB-435
MDA-N = test system: MDA-N
MOLT-4 = test system: MOLT-4
Malme-3M = test system: Malme-3M
NCI-H226 = test system: NCI-H226
NCI-H23 = test system: NCI-H23
NCI-H522 = test system: NCI-H522
NCI/ADR-RES = test system: NCI/ADR-RES
OVCAR-3 = test system: OVCAR-3
OVCAR-4 = test system: OVCAR-4
OVCAR-5 = test system: OVCAR-5
OVCAR-8 = test system: OVCAR-8
PC-3 = test system: PC-3
RPMI-8226 = test system: RPMI-8226
RXF 393 = test system: RXF 393
SF-268 = test system: SF-268
SF-295 = test system: SF-295
SF-539 = test system: SF-539
SK-MEL-28 = test system: SK-MEL-28
SK-MEL-2 = test system: SK-MEL-2
SK-MEL-5 = test system: SK-MEL-5
SK-OV-3 = test system: SK-OV-3
SN12C = test system: SN12C
SNB-19 = test system: SNB-19
SNB-75 = test system: SNB-75
SR = test system: SR
SW-620 = test system: SW-620
T47D = test system: T47D
TK-10 = test system: TK-10
U-251 = test system: U-251
UACC-257 = test system: UACC-257
UACC-62 = test system: UACC-62
UO-31 = test system: UO-31
A498 = test system: A498
MDA-MB-231 = test system: MDA-MB-231
NCI-H460 = test system: NCI-H460

## CC1(C)CN=C(Nc2ccc(F)c(Cl)c2)S1
786-0
  GI50: > 100 µM (inactive)
A549
  GI50: > 100 µM (inactive)
ACHN
  GI50: > 100 µM (inactive)
BT-549
  GI50: > 100 µM (inactive)
CAKI-1
  GI50: > 100 µM (inactive)
CCRF-CEM
  GI50: > 100 µM (inactive)
COLO 205
  GI50: > 100 µM (inactive)
DU-145
  GI50: > 100 µM (inactive)
EKVX
  GI50: > 100 µM (inactive)
HCC 2998
  GI50: > 100 µM (inactive)
HCT-116
  GI50: > 100 µM (inactive)
HCT-15
  GI50: > 100 µM
HL-60
  GI50: > 100 µM (inactive)
HOP-62
  GI50: > 100 µM (inactive)
HOP-92
  GI50: > 100 µM (inactive)
HT-29
  GI50: > 100 µM (inactive)
Hs-578T
  GI50: > 100 µM (inactive)
IGROV-1
  GI50: > 100 µM (inactive)
K562
  GI50: > 100 µM (inactive)
KM12
  GI50: > 100 µM (inactive)
LOX IMVI
  GI50: > 100 µM (inactive)
M14
  GI50: > 100 µM (inactive)
MCF7
  GI50: > 100 µM (inactive)
MDA-MB-435
  GI50: > 100 µM (inactive)
MDA-N
  GI50: > 100 µM (inactive)
MOLT-4
  GI50: > 100 µM (inactive)
Malme-3M
  GI50: > 100 µM (inactive)
NCI-H226
  GI50: > 100 µM (inactive)
NCI-H23
  GI50: > 100 µM (inactive)
NCI-H522
  GI50: > 100 µM (inactive)
NCI/ADR-RES
  GI50: > 100 µM (inactive)
OVCAR-3
  GI50: > 100 µM (inactive)
OVCAR-4
  GI50: > 100 µM (inactive)
OVCAR-5
  GI50: > 100 µM (inactive)
OVCAR-8
  GI50: > 100 µM (inactive)
PC-3
  GI50: > 100 µM (inactive)
RPMI-8226
  GI50: > 100 µM (inactive)
RXF 393
  GI50: > 100 µM (inactive)
SF-268
  GI50: > 100 µM (inactive)
SF-295
  GI50: > 100 µM (inactive)
SF-539
  GI50: > 100 µM (inactive)
SK-MEL-28
  GI50: > 100 µM (inactive)
SK-MEL-2
  GI50: > 100 µM (inactive)
SK-MEL-5
  GI50: > 100 µM (inactive)
SK-OV-3
  GI50: > 100 µM (inactive)
SN12C
  GI50: > 100 µM (inactive)
SNB-19
  GI50: > 100 µM (inactive)
SNB-75
  GI50: > 100 µM (inactive)
SR
  GI50: > 100 µM (inactive)
SW-620
  GI50: > 100 µM (inactive)
T47D
  GI50: > 100 µM (inactive)
TK-10
  GI50: > 100 µM (inactive)
U-251
  GI50: > 100 µM (inactive)
UACC-257
  GI50: > 100 µM (inactive)
UACC-62
  GI50: > 100 µM (inactive)
UO-31
  GI50: > 100 µM (inactive)

## COc1ccccc1/C=C/c1ccnc2ccccc12
786-0
  GI50: 14.3 µM (inactive)
A498
  GI50: 15.4 µM (inactive)
A549
  GI50: 14.5 µM (inactive)
ACHN
  GI50: 16.4 µM (inactive)
BT-549
  GI50: 10.9 µM (inactive)
CAKI-1
  GI50: 14.6 µM (inactive)
CCRF-CEM
  GI50: 14.2 µM (inactive)
COLO 205
  GI50: 17.1 µM (inactive)
DU-145
  GI50: 16.4 µM (inactive)
EKVX
  GI50: 11 µM (inactive)
HCC 2998
  GI50: 17.5 µM (inactive)
HCT-116
  GI50: 13.6 µM (inactive)
HCT-15
  GI50: 12.3 µM
HL-60
  GI50: 7.64 µM (inactive)
HOP-62
  GI50: 16.1 µM (inactive)
HOP-92
  GI50: 12.8 µM (inactive)
HT-29
  GI50: 12.8 µM (inactive)
Hs-578T
  GI50: 14.7 µM (inactive)
IGROV-1
  GI50: 4.97 µM (inactive)
K562
  GI50: 10.7 µM (inactive)
KM12
  GI50: 12.3 µM (inactive)
LOX IMVI
  GI50: 16.3 µM (inactive)
M14
  GI50: 16.2 µM (inactive)
MCF7
  GI50: 4.25 µM (inactive)
MDA-MB-231
  GI50: 16.1 µM (inactive)
MDA-MB-435
  GI50: 7.16 µM (inactive)
MDA-N
  GI50: 11.6 µM (inactive)
MOLT-4
  GI50: 7.87 µM (inactive)
Malme-3M
  GI50: 11.7 µM (inactive)
NCI-H226
  GI50: 15.8 µM (inactive)
NCI-H23
  GI50: 13.6 µM (inactive)
NCI-H460
  GI50: 15.5 µM (inactive)
NCI/ADR-RES
  GI50: 11.3 µM (inactive)
OVCAR-3
  GI50: 13.8 µM (inactive)
OVCAR-4
  GI50: 12.8 µM (inactive)
OVCAR-5
  GI50: 17.3 µM (inactive)
OVCAR-8
  GI50: 15.4 µM (inactive)
PC-3
  GI50: 14.3 µM (inactive)
RPMI-8226
  GI50: 8.49 µM (inactive)
SF-268
  GI50: 14.2 µM (inactive)
SF-295
  GI50: 14.2 µM (inactive)
SF-539
  GI50: 14.6 µM (inactive)
SK-MEL-28
  GI50: 17.4 µM (inactive)
SK-MEL-2
  GI50: 16.4 µM (inactive)
SK-MEL-5
  GI50: 13.5 µM (inactive)
SK-OV-3
  GI50: 16 µM (inactive)
SN12C
  GI50: 18.1 µM (inactive)
SNB-19
  GI50: 14.3 µM (inactive)
SNB-75
  GI50: 3.37 µM (inactive)
SR
  GI50: 12.8 µM (inactive)
SW-620
  GI50: 13.8 µM (inactive)
TK-10
  GI50: 16.8 µM (inactive)
U-251
  GI50: 11.9 µM (inactive)
UACC-257
  GI50: 16 µM (inactive)
UACC-62
  GI50: 11.7 µM (inactive)

Source: ChEMBL document CHEMBL1201862, “PubChem BioAssay data set” (2004)
